Data reported in patent US8293979B2, “Weed controller metabolism proteins, genes, thereof and use of the same” (Sumitomo Chemical Company, Limited, priority 2001, dated 2012).

What was measured:
Barnyardgrass = experiment: Herbicidal activity test, foliage treatment; type: in vivo, Echinochloa crus-galli; design: key: 0: situations in which the condition of sprouting or vegetation at the time of examination of the plant utilized for the test was compared with and showed totally or substantially no difference with that of the untreated application; 10: situations in which the plant completely withered or the sprouting or vegetation was completely suppressed; conditions: sprayed onto the foliage of plants cultivated 10 days, investigated after 16 days in a greenhouse
Method: Soil was packed into a round plastic pot having a diameter of 10 cm and depth of 10 cm. Barnyardgrass, Blackgrass, Ivyleaf morningglory were seeded and cultivated in a greenhouse for 10 days. Five (5) parts of the test compound, 6 parts of sorpol3005X (Toho Chemical Company) and 89 parts of xylene were well mixed to produce an emulsion. A certain amount thereof was diluted with water containing 0.1% (v/v) of a sticking agent at a proportion of 1000 L for 1 hectare and was spread uniformly with a spray-gun onto the all sides of the foliage from above the plant cultivated in the above pot. After cultivating the plants for 16 days in a greenhouse, the herbicidal activity of the test compound was investigated.
In the above Tables 3 and 4, the strength of the herbicidal activity is shown stepwise as 0, 1, 2, 3, 4, 5, 6, 7, 8, 9, and 10.

[1] = test system: present invention protein (A16); experiment: Metabolism of compounds by the present invention protein (A16), reaction solution, HPLC; type: in vitro ADME, Streptomyces ornatus IFO 13069t; conditions: 12.5 ppm of compound, components A, B, C, 20 μl supernatant fraction of Example 49(2), 30° C. for 10 minutes
Method: There was prepared 100 μl of a reaction solution of 50 mM potassium phosphate buffer (pH7.0) containing 12.5 ppm of compound (XII), 3 mM of β-NADPH (hereinafter, referred to as “component A”) (Oriental Yeast Company), 1 mg/ml of a ferredoxin derived from spinach (hereinafter referred to as “component B”) (Sigma Company), 0.15 U/ml of ferredoxin reductase (hereinafter, referred to as “component C”) (Sigma Company) and 20 μl of the supernatant fraction recovered in Example 49(2). The reaction solution was maintained at 30° C. for 10 minutes. […] Forty microliters (40 μl) of the liquid filtrate (hereinafter, the liquid filtrate derived from the reaction solution containing component A, component B, component C and 20 μl of supernatant fraction recovered in Example 49(2) is referred to as “(XII) metabolism solution (A16);” further, the liquid filtrate derived from the reaction solution containing no component A, no component B, no component C and no supernatant fraction recovered in Example 49(2) is referred to as “(XII) control solution (A16)”) were analyzed on a HPLC under the above analysis condition 1. Compared to the concentration of compound (XII) detected from (XII) control solution (A16), the concentration of compound (XII) detected from (XII) metabolism solution (A16) was lower. […]

Which “Herbicidal Activity Barnyardgrass” value (Barnyardgrass; 125 g/ha) does the source give for C[C@@H](Oc1cc(-n2c(=O)cc(C(F)(F)F)n(C)c2=O)c(F)cc1Cl)C(=O)O [compound (II)] here?
Its value is 10.

And the “Herbicidal Activity Barnyardgrass” value (Barnyardgrass; 500 g/ha)?
Its value is 10.

With Cn1c(C(F)(F)F)cc(=O)n(-c2cc(Oc3cccnc3OCC(=O)O)c(Cl)cc2F)c1=O [compound (XII)] as the compound, how does the “concentration of the compound detected from metabolism solution (A16) compared to control solution (A16)” value [1] read?
The value was “lower”.
